Test results as given in ChEMBL document CHEMBL5120774, “Genome-Mining-Guided Discovery and Characterization of the PKS-NRPS-Hybrid Polyoxyperuin Produced by a Marine-Derived Streptomycete” (2022).
≈ marks a conversion by molar mass, not a printed value.

Assays:
Assay type in all cases: functional
Bacillus subtilis = test: Antibacterial activity against Bacillus subtilis DSM10 assessed as inhibition of bacterial growth incubated for 18 hrs by broth microdilution method
Staphylococcus aureus = test: Antibacterial activity against Staphylococcus aureus ATCC 25923 assessed as inhibition of bacterial growth incubated for 18 hrs by broth microdilution method
[1] = tested on: Mycolicibacterium smegmatis; test: Antibacterial activity against Mycobacterium smegmatis ATCC 607 assessed as inhibition of bacterial growth incubated for 48 hrs by BacTiter-Glo assay
Micrococcus luteus = test: Antibacterial activity against Micrococcus luteus DSM20030 assessed as inhibition of bacterial growth incubated for 18 hrs by broth microdilution method
Escherichia coli = test: Antibacterial activity against Escherichia coli ATCC 35218 assessed as inhibition of bacterial growth incubated for 18 hrs by broth microdilution method
Listeria monocytogenes = test: Antibacterial activity against Listeria monocytogenes DSM20600 assessed as inhibition of bacterial growth incubated for 48 hrs by BacTiter-Glo assay

Row | MIC (Bacillus subtilis) | MIC (Staphylococcus aureus) | MIC [1] | MIC (Micrococcus luteus) | MIC (Escherichia coli) | MIC (Listeria monocytogenes) | Compound
1 | 0.125 µg/mL (≈ 0.146 µM) | 0.125 µg/mL (≈ 0.146 µM) | > 64 µg/mL | < 0.031 µg/mL | > 64 µg/mL | < 0.031 µg/mL | CC[C@H]1OC(O)(C(C)(O)C(=O)N[C@@H]2C(=O)N3NCCC[C@@H]3C(=O)N(O)[C@@H](C)C(=O)N(C)[C@@H](CC(C)C)C(=O)N3NCCC[C@@H]3C(=O)N(O)CC(=O)OC2C(C)C)CC[C@@H]1C (some centres not stated)
2 | > 64 µg/mL | > 64 µg/mL | > 64 µg/mL | 32 µg/mL (≈ 36.7 µM) | > 64 µg/mL | > 64 µg/mL | CC[C@H]1OC(O)(C(C)(O)C(=O)N[C@H](C(=O)N2NCCC[C@@H]2C(=O)N(O)[C@@H](C)C(=O)N(C)[C@@H](CC(C)C)C(=O)N2NCCC[C@@H]2C(=O)N(O)CC(=O)O)C(O)C(C)C)CC[C@@H]1C (some centres not stated)
